Reference: article PMC2944806, “HLA Class I Binding of HBZ Determines Outcome in HTLV-1 Infection” (PLoS Pathogens, 2010)

target: T1, HLA class I molecule A*0201 (Homo sapiens, UniProt P04439, D140Y/D185E/D98H/E176V/E277Q/G131W/G231S/I119V/I121R/I166T/I218V/L300P/L318F/N151K/N90K/P208A/P217A/Q86G/Q94H/R138H/R169H/T345S); assay: not given; type: binding; conditions: REVEAL assay, assembly of peptide-HLA complex by ELISA with conformation-dependent anti-HLA antibody, relative to positive control peptide for that allele, comparable within an allele only
T1 construct: purchased ProImmune Ltd., Oxford, UK

Row | Sequence | Score (experimentally measured binding affinity, % binding compared to control peptide) [%]
1 | YISQDFLNM [HTLV-1 nonamer peptide] | 10.48
2 | ILIQTQAQI [HTLV-1 nonamer peptide] | 79.21
3 | KLLQEKEDL [HTLV-1 nonamer peptide] | 0
4 | LTPPITHTT [HTLV-1 nonamer peptide] | 31.05
5 | QLWLAAFAA [HTLV-1 nonamer peptide] | 64.37
6 | TLGQHLPTL [HTLV-1 nonamer peptide] | 54.56
7 | FMQTIRLAV [HTLV-1 nonamer peptide from Gag] | 95.61
8 | QLEGEVESL [HTLV-1 nonamer peptide] | 18.58
9 | ALLGEIQWV [HTLV-1 nonamer peptide from Pol] | 84.64
10 | TLYRLHVWV [HTLV-1 nonamer peptide] | 73.87
11 | QLLASAVLL [HTLV-1 nonamer peptide] | 100.23
12 | LLQYLCSSL [HTLV-1 nonamer peptide] | 45.68
13 | QLDSLISEA [HTLV-1 nonamer peptide] | 52.07
14 | ELVDGLLSL [HTLV-1 nonamer peptide] | 25.11
15 | QLGAFLTNV [HTLV-1 nonamer peptide] | 80.99
16 | LLQEKEDLM [HTLV-1 nonamer peptide] | 46.36
17 | TLTAWQNGL [HTLV-1 nonamer peptide] | 54.64
18 | GIDGYTRQL [HTLV-1 nonamer peptide] | 28.99
19 | YLCSSLVAS [HTLV-1 nonamer peptide] | 42.17
20 | ILPEDCLPT [HTLV-1 nonamer peptide] | 15.96
21 | YLYQLSPPI [HTLV-1 nonamer peptide from Tax] | 132.52
22 | LMGEVNYWQ [HTLV-1 nonamer peptide] | 12.98
23 | LVEELVDGL [HTLV-1 nonamer peptide] | 2.64
24 | LQYLCSSLV [HTLV-1 nonamer peptide] | 47.17
25 | LLLDLPADI [HTLV-1 nonamer peptide] | 77.78
26 | AAGAALIPV [HTLV-1 nonamer peptide] | 34.35
27 | YILWDKQIL [HTLV-1 nonamer peptide] | 39
28 | LLYKISLTT [HTLV-1 nonamer peptide] | 78.05
29 | TLSFPDPGL [HTLV-1 nonamer peptide] | 0
30 | LLITPVLQL [HTLV-1 nonamer peptide] | 114.87

target: HLA class I molecule B*3501 (Homo sapiens, UniProt P01889, A329T/A93T/A95T/C349S/D201E/D98Y/E176V/E187L/E204Q/E69T/I218V/K202T/L119I/Q94N/R155S/R180L/S121R/S35A/S48A/T118I/V127L/V306I/V36M/Y140S/Y91F); assay: REVEAL HLA-peptide binding assay, B*3501; conditions: assembly of peptide-HLA complex by ELISA with conformation-dependent anti-HLA antibody, relative to positive control peptide for that allele, comparable within an allele only
Method: The REVEAL HLA-peptide binding assay (ProImmune Ltd., Oxford, UK) was used to quantify peptide-HLA binding. For each allele-peptide combination that was tested, assembly of peptide-HLA complexes was quantified by ELISA with a conformation-dependent anti-HLA antibody. Samples of assembling peptide-HLA complexes were taken at a defined time point and snap-frozen in liquid nitrogen prior to analysis. The assembly for each peptide-HLA complex was then compared against a positive control peptide for that allele as the percentage of assembled peptide relative to that control. We selected four HLA class I alleles and 50 HTLV-1 peptides for each allele. The allele choice was based on allele frequency in the Kagoshima database and included 2 A alleles and 2 B alleles as well as alleles for which we knew that the epitope prediction tended to be poor. The 50 HTLV-1 nonamer peptides for each allele were selected to represent a range of predicted binding affinities, from weak to strong binding peptides. They originated from 4 HTLV-1 reference strain proteins: Tax, HBZ, Gag and Polymerase.
Note the binding score is with respect to a reference good binding peptide for each allele and therefore scores can be compared within an allele but not between alleles.

Row | Sequence | Score (experimentally measured binding affinity, % binding compared to control peptide) [%]
31 | EPGPSSYDF [HTLV-1 nonamer peptide] | 102.27
32 | YISQDFLNM [HTLV-1 nonamer peptide] | 0
33 | CPINYSLLA [HTLV-1 nonamer peptide] | 102.68
34 | LTPPITHTT [HTLV-1 nonamer peptide] | 0
35 | EPEEDALLL [HTLV-1 nonamer peptide] | 11.92
36 | MQELGIDGY [HTLV-1 nonamer peptide] | 48.1
37 | WTFTDGTPM [HTLV-1 nonamer peptide] | 137.29
38 | WPLLPHVIF [HTLV-1 nonamer peptide] | 49.66
39 | LASLLPKGY [HTLV-1 nonamer peptide] | 98.24
40 | CPLCQDPTH [HTLV-1 nonamer peptide] | 36.7
41 | WTINHLNVL [HTLV-1 nonamer peptide] | 1.04
42 | QAAPGSPQF [HTLV-1 nonamer peptide] | 86.5
43 | EPEPEEDAL [HTLV-1 nonamer peptide] | 28.71
44 | ELVDGLLSL [HTLV-1 nonamer peptide] | 0
45 | WALPELQAL [HTLV-1 nonamer peptide] | 73.45
46 | LLQEKEDLM [HTLV-1 nonamer peptide] | 0
47 | EEEKQIAEY [HTLV-1 nonamer peptide] | 8.99
48 | LPEDCLPTT [HTLV-1 nonamer peptide] | 52.2
49 | LVEELVDGL [HTLV-1 nonamer peptide] | 0
50 | FPTQRTSKT [HTLV-1 nonamer peptide] | 81.35
51 | LPTTLFQPA [HTLV-1 nonamer peptide from Tax] | 119.5
52 | DPILRSLAY [HTLV-1 nonamer peptide] | 72.18
53 | YILWDKQIL [HTLV-1 nonamer peptide] | 0
54 | FPQCTILQY [HTLV-1 nonamer peptide] | 103.38

target: T2, HLA class I molecule A*2402 (Homo sapiens, UniProt P04439, D101N/D140Y/D185E/E176V/E190D/F33S/G103R/G107R/I119L/I121M/I306V/K335N/L105A/L180Q/L300P/N151K/N90K/Q86E/Q94H/R106L/R138H/R89G/T104I/T345S/V100E/W191G/Y123F); assay: not given; type: binding; conditions: REVEAL assay, assembly of peptide-HLA complex by ELISA with conformation-dependent anti-HLA antibody, relative to positive control peptide for that allele, comparable within an allele only
T2 construct: purchased ProImmune Ltd., Oxford, UK

Row | Sequence | Score (experimentally measured binding affinity, % binding compared to control peptide) [%]
55 | SWASILQGL [HTLV-1 nonamer peptide] | 123.67
56 | GYPGRVNEI [HTLV-1 nonamer peptide] | 82.68
57 | SYGLLCQTI [HTLV-1 nonamer peptide] | 114.37
58 | DLMGEVNYW [HTLV-1 nonamer peptide] | 62.28
59 | EYLKRKEEE [HTLV-1 nonamer peptide] | 0
60 | TTPGLIWTF [HTLV-1 nonamer peptide] | 215.15
61 | GYTRQLEGE [HTLV-1 nonamer peptide] | 35.37
62 | IFSRSASPI [HTLV-1 nonamer peptide] | 62.41
63 | QYLCSSLVA [HTLV-1 nonamer peptide] | 4.85
64 | IWQGDITHF [HTLV-1 nonamer peptide] | 64.83
65 | SFLLSHGLI [HTLV-1 nonamer peptide] | 79.27
66 | VSCPEDLLV [HTLV-1 nonamer peptide] | 9.6
67 | TTPNIPPSF [HTLV-1 nonamer peptide] | 0.43
68 | ICPINYSLL [HTLV-1 nonamer peptide] | 69.19
69 | KYLYHYLRT [HTLV-1 nonamer peptide] | 2.63
70 | NYSLLASLL [HTLV-1 nonamer peptide] | 105.08
71 | EYQQLWLAA [HTLV-1 nonamer peptide] | 2.7
72 | VLQSSSFIF [HTLV-1 nonamer peptide] | 82.42
73 | AWQNGLLPF [HTLV-1 nonamer peptide] | 92.6
74 | PYHAFVERL [HTLV-1 nonamer peptide] | 113.04
75 | KYKNTLYRL [HTLV-1 nonamer peptide] | 124.9
76 | EKAVLDGLL [HTLV-1 nonamer peptide] | 0
